Reference: publication PMC7459852, “Identification of 6-(piperazin-1-yl)-1,3,5-triazine as a chemical scaffold with broad anti-schistosomal activities” (Wellcome Open Research, 2020)

Tested on: S. mansoni adult worms
Experiment: Scanning electron microscopy of compound damage on adult worms
Format: cell-based, Schistosoma mansoni
Details: 12.50 µM (sub-lethal), 72 h
Method: Following 72 h of drug treatment, the cultured S. mansoni adult worms were collected, separated by sex and relaxed with tricaine anaesthetic solution (0.25% w/v of ethyl 3-aminobenzoate methane sulfonate - Tricaine, E10521, Sigma Aldrich - in DMEM). The samples were incubated by gently rocking for 15 min or until parasites relaxed and separated. The parasites were then killed by incubation in a solution of […] magnesium chloride (MgCl 2) for 1 min. Afterwards, adult schistosome worms were briefly washed with pre-warmed 1X PBS and then fixed using appropriate solutions for analysis by scanning electron microscopy (SEM) as previously described in literature, [61], [62].
Post fixation, adult schistosomes were stored at 4°C until washing with 0.1 M sodium cacodylate was performed (2 x 30 min each). The worms were then stained with 1% v/v osmium tetroxide water solution (stored at -20°C and pre-warmed at room temperature prior to use) for 2 h and then washed with 0.1 M sodium cacodylate for 30 min. Following staining, worms were dehydrated with an aqueous alcohol series (30, 50, 70, 95 and 100% ethanol in ultra-pure water) by agitating gently on a rocker for 30 min per solution. At the final step, the samples were left in 100% ethanol overnight before being dried with hexamethyldisilazane critical drying point agent (AGR1228, Agar Scientific, Stansted, UK) for at least 3 h. […]

**Q.** With `c1ccc(Nc2nc(N3CCCC3)nc(N3CCNCC3)n2)cc1` [Compound 7] as the compound, how does the “morphological changes of adult worms by SEM” value read?
**A.** The value was “partial loss of tubercles and spines as well as tegument erosion”.
